From PubChem BioAssay AID2060895 (Molecular Pharmacology Branch, DTP, NCI, 2025)
pIC50: −log10 of the molar value. Each block holds one compound with its values, some of them ahead of it.

Test system: PDC 899932-113-R3-J6 complex spheroid viability
Test: Anticancer human tumor 899932-113-R3-J6-PDC patient-derived melanoma cell line growth inhibition [RAS]
Conditions: for pIC50: curve of first compound; for viability, T/C: stronger effect = lower value
Summary of the method: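 Tumour cells grown as complex spheroids with HUVEC endothelial cells and mesenchymal stem cells, treated with RAS pathway inhibitor combinations. Each agent spans half-log steps from near clinical Cmax, or 10 microM where Cmax is unknown.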

[1] = second compound 0.0316 µM, first compound 0.00316 µM
[2] = second compound 0.0316 µM, first compound 0.01 µM
[3] = second compound 0.0316 µM, first compound 0.0316 µM
[4] = second compound 0.0316 µM, first compound 0.1 µM
[5] = second compound 0.0316 µM, first compound 0.316 µM
[6] = second compound 0.0316 µM, first compound 1 µM
[7] = second compound 0.1 µM, first compound 0.00316 µM
[8] = second compound 0.1 µM, first compound 0.01 µM
[9] = second compound 0.1 µM, first compound 0.0316 µM
[10] = second compound 0.1 µM, first compound 0.1 µM
[11] = second compound 0.1 µM, first compound 0.316 µM
[12] = second compound 0.1 µM, first compound 1 µM
[13] = second compound 0.316 µM, first compound 0.00316 µM
[14] = second compound 0.316 µM, first compound 0.01 µM
[15] = second compound 0.316 µM, first compound 0.0316 µM
[16] = second compound 0.316 µM, first compound 0.1 µM
[17] = second compound 0.316 µM, first compound 0.316 µM
[18] = second compound 0.316 µM, first compound 1 µM
[19] = second compound 1 µM, first compound 0.00316 µM
[20] = second compound 1 µM, first compound 0.01 µM
[21] = second compound 1 µM, first compound 0.0316 µM
[22] = second compound 1 µM, first compound 0.1 µM
[23] = second compound 1 µM, first compound 0.316 µM
[24] = second compound 1 µM, first compound 1 µM
[25] = second compound 3.16 µM, first compound 0.00316 µM
[26] = second compound 3.16 µM, first compound 0.01 µM
[27] = second compound 3.16 µM, first compound 0.0316 µM
[28] = second compound 3.16 µM, first compound 0.1 µM
[29] = second compound 3.16 µM, first compound 0.316 µM
[30] = second compound 3.16 µM, first compound 1 µM
[31] = second compound 10 µM, first compound 0.00316 µM
[32] = second compound 10 µM, first compound 0.01 µM
[33] = second compound 10 µM, first compound 0.0316 µM
[34] = second compound 10 µM, first compound 0.1 µM
[35] = second compound 10 µM, first compound 0.316 µM
[36] = second compound 10 µM, first compound 1 µM
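Wherever viability, T/C is given: spheroids exposed to agents for seven days before readout; 100% = DMSO vehicle control wells.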

pIC50 (second compound 0.0316 µM): < 6.00
pIC50 (second compound 0.1 µM): < 6.00
pIC50 (second compound 0.316 µM): < 6.00
pIC50 (second compound 1 µM): < 6.00
pIC50 (second compound 3.16 µM): < 6.00
pIC50 (second compound 10 µM): < 6.00
Structure (SMILES): C=CC(=O)N1CCN(c2nc(OCC3CCCN3C)nc3c(F)c(-c4nc(N)cc(C)c4C(F)(F)F)c(Cl)cc23)C(C)C1 (stereo not drawn) + C#Cc1c(F)ccc2cc(O)cc(-c3ncc4c(N5CC6CCC(C5)N6)nc(OCC56CCCN5CC(F)C6)nc4c3F)c12
viability, T/C [1]: 116%
viability, T/C [2]: 107%
viability, T/C [3]: 101%
viability, T/C [4]: 108%
viability, T/C [5]: 110%
viability, T/C [6]: 104%
viability, T/C [7]: 112%
viability, T/C [8]: 106%
viability, T/C [9]: 105%
viability, T/C [10]: 117%
viability, T/C [11]: 111%
viability, T/C [12]: 106%
viability, T/C [13]: 112%
viability, T/C [14]: 115%
viability, T/C [15]: 107%
viability, T/C [16]: 108%
viability, T/C [17]: 117%
viability, T/C [18]: 112%
viability, T/C [19]: 120%
viability, T/C [20]: 108%
viability, T/C [21]: 115%
viability, T/C [22]: 112%
viability, T/C [23]: 125%
viability, T/C [24]: 102%
viability, T/C [25]: 129%
viability, T/C [26]: 113%
viability, T/C [27]: 120%
viability, T/C [28]: 133%
viability, T/C [29]: 124%
viability, T/C [30]: 110%
viability, T/C [31]: 118%
viability, T/C [32]: 115%
viability, T/C [33]: 122%
viability, T/C [34]: 125%
viability, T/C [35]: 110%
viability, T/C [36]: 102%

pIC50 (second compound 0.0316 µM): > 7.50
pIC50 (second compound 0.1 µM): > 7.50
pIC50 (second compound 0.316 µM): > 7.50
pIC50 (second compound 1 µM): > 7.50
pIC50 (second compound 3.16 µM): > 7.50
pIC50 (second compound 10 µM): > 7.50
Structure (SMILES): CC(=O)OC12COC1CC(O)C1(C)C(=O)C(O)C3=C(C)C(OC(=O)C(O)C(NC(=O)OC(C)(C)C)c4ccccc4)CC(O)(C(OC(=O)c4ccccc4)C21)C3(C)C (stereo not drawn) + C#Cc1c(F)ccc2cc(O)cc(-c3ncc4c(N5CC6CCC(C5)N6)nc(OCC56CCCN5CC(F)C6)nc4c3F)c12
viability, T/C [3]: 33.1%
viability, T/C [4]: 32.1%
viability, T/C [5]: 39.9%
viability, T/C [6]: 48.3%
viability, T/C (second compound 0.0316 µM, first compound 3.16 µM): 67.1%
viability, T/C (second compound 0.0316 µM, first compound 10 µM): 67.7%
viability, T/C [9]: 31.8%
viability, T/C [10]: 31.7%
viability, T/C [11]: 36.1%
viability, T/C [12]: 49.5%
viability, T/C (second compound 0.1 µM, first compound 3.16 µM): 74.5%
viability, T/C (second compound 0.1 µM, first compound 10 µM): 81.8%
viability, T/C [15]: 32.3%
viability, T/C [16]: 30.5%
viability, T/C [17]: 38.8%
viability, T/C [18]: 53.4%
viability, T/C (second compound 0.316 µM, first compound 3.16 µM): 67.4%
viability, T/C (second compound 0.316 µM, first compound 10 µM): 82.8%
viability, T/C [21]: 30.7%
viability, T/C [22]: 35%
viability, T/C [23]: 41.3%
viability, T/C [24]: 45.5%
viability, T/C (second compound 1 µM, first compound 3.16 µM): 75.1%
viability, T/C (second compound 1 µM, first compound 10 µM): 78.9%
viability, T/C [27]: 32.1%
viability, T/C [28]: 34.4%
viability, T/C [29]: 37.5%
viability, T/C [30]: 49.6%
viability, T/C (second compound 3.16 µM, first compound 3.16 µM): 63.2%
viability, T/C (second compound 3.16 µM, first compound 10 µM): 73.9%
viability, T/C [33]: 35.3%
viability, T/C [34]: 28.9%
viability, T/C [35]: 36.4%
viability, T/C [36]: 46.5%
viability, T/C (second compound 10 µM, first compound 3.16 µM): 66.4%
viability, T/C (second compound 10 µM, first compound 10 µM): 69.7%

pIC50 (second compound 0.0316 µM): 7.93
pIC50 (second compound 0.1 µM): 7.68
pIC50 (second compound 0.316 µM): 7.44
pIC50 (second compound 1 µM): 7.43
pIC50 (second compound 3.16 µM): 7.48
pIC50 (second compound 10 µM): 7.49
Structure (SMILES): CCc1c2c(nc3ccc(O)cc13)-c1cc3c(c(=O)n1C2)COC(=O)[C@]3(O)CC + C#Cc1c(F)ccc2cc(O)cc(-c3ncc4c(N5CC6CCC(C5)N6)nc(OCC56CCCN5CC(F)C6)nc4c3F)c12
viability, T/C (second compound 0.0316 µM, first compound 0.000949 µM): 108%
viability, T/C (second compound 0.0316 µM, first compound 0.003 µM): 63.5%
viability, T/C (second compound 0.0316 µM, first compound 0.00949 µM): 56.8%
viability, T/C (second compound 0.0316 µM, first compound 0.03 µM): 45.1%
viability, T/C (second compound 0.0316 µM, first compound 0.0949 µM): 41.5%
viability, T/C (second compound 0.0316 µM, first compound 0.3 µM): 34.2%
viability, T/C (second compound 0.1 µM, first compound 0.000949 µM): 85.7%
viability, T/C (second compound 0.1 µM, first compound 0.003 µM): 69.6%
viability, T/C (second compound 0.1 µM, first compound 0.00949 µM): 50.6%
viability, T/C (second compound 0.1 µM, first compound 0.03 µM): 50.2%
viability, T/C (second compound 0.1 µM, first compound 0.0949 µM): 44.5%
viability, T/C (second compound 0.1 µM, first compound 0.3 µM): 33.2%
viability, T/C (second compound 0.316 µM, first compound 0.000949 µM): 81.2%
viability, T/C (second compound 0.316 µM, first compound 0.003 µM): 74.3%
viability, T/C (second compound 0.316 µM, first compound 0.00949 µM): 54%
viability, T/C (second compound 0.316 µM, first compound 0.03 µM): 54%
viability, T/C (second compound 0.316 µM, first compound 0.0949 µM): 42.6%
viability, T/C (second compound 0.316 µM, first compound 0.3 µM): 35.2%
viability, T/C (second compound 1 µM, first compound 0.000949 µM): 91.7%
viability, T/C (second compound 1 µM, first compound 0.003 µM): 74%
viability, T/C (second compound 1 µM, first compound 0.00949 µM): 63%
viability, T/C (second compound 1 µM, first compound 0.03 µM): 52.2%
viability, T/C (second compound 1 µM, first compound 0.0949 µM): 43.3%
viability, T/C (second compound 1 µM, first compound 0.3 µM): 32.2%
viability, T/C (second compound 3.16 µM, first compound 0.000949 µM): 99%
viability, T/C (second compound 3.16 µM, first compound 0.003 µM): 74.5%
viability, T/C (second compound 3.16 µM, first compound 0.00949 µM): 60%
viability, T/C (second compound 3.16 µM, first compound 0.03 µM): 54.2%
viability, T/C (second compound 3.16 µM, first compound 0.0949 µM): 44.9%
viability, T/C (second compound 3.16 µM, first compound 0.3 µM): 33.5%
viability, T/C (second compound 10 µM, first compound 0.000949 µM): 101%
viability, T/C (second compound 10 µM, first compound 0.003 µM): 71%
viability, T/C (second compound 10 µM, first compound 0.00949 µM): 66.8%
viability, T/C (second compound 10 µM, first compound 0.03 µM): 47.3%
viability, T/C (second compound 10 µM, first compound 0.0949 µM): 47.9%
viability, T/C (second compound 10 µM, first compound 0.3 µM): 33.9%

pIC50 (second compound 0.0316 µM): 7.75
pIC50 (second compound 0.1 µM): 7.71
pIC50 (second compound 0.316 µM): 7.77
pIC50 (second compound 1 µM): 7.72
pIC50 (second compound 3.16 µM): 7.78
pIC50 (second compound 10 µM): 7.75
Structure (SMILES): Nc1ccn(C2OC(CO)C(O)C2(F)F)c(=O)n1 (stereo not drawn) + C#Cc1c(F)ccc2cc(O)cc(-c3ncc4c(N5CC6CCC(C5)N6)nc(OCC56CCCN5CC(F)C6)nc4c3F)c12
viability, T/C [1]: 102%
viability, T/C [2]: 65.1%
viability, T/C [3]: 35.3%
viability, T/C [4]: 21.2%
viability, T/C [5]: 18.6%
viability, T/C [6]: 22.1%
viability, T/C [7]: 95%
viability, T/C [8]: 71.7%
viability, T/C [9]: 34.3%
viability, T/C [10]: 18.9%
viability, T/C [11]: 20.5%
viability, T/C [12]: 20.6%
viability, T/C [13]: 99.1%
viability, T/C [14]: 65.1%
viability, T/C [15]: 33.7%
viability, T/C [16]: 17.9%
viability, T/C [17]: 20.2%
viability, T/C [18]: 20.1%
viability, T/C [19]: 99.2%
viability, T/C [20]: 70.4%
viability, T/C [21]: 35.6%
viability, T/C [22]: 16.4%
viability, T/C [23]: 15.3%
viability, T/C [24]: 20.8%
viability, T/C [25]: 103%
viability, T/C [26]: 65.6%
viability, T/C [27]: 29.9%
viability, T/C [28]: 19.8%
viability, T/C [29]: 17.5%
viability, T/C [30]: 18.8%
viability, T/C [31]: 102%
viability, T/C [32]: 67.2%
viability, T/C [33]: 33.5%
viability, T/C [34]: 15.2%
viability, T/C [35]: 18.3%
viability, T/C [36]: 19.2%
